Data set [1] in a line: n-Octanol-water partition coefficient, log P of the compound after 15 mins by shake flask method. It is filed as physicochemical.
Data set [2] is described as follows: Selectivity ratio of IC50 for electric eel AChE to IC50 for equine serum BChE.
A further data set concerns the target Cholinesterase (Equus caballus, UniProt P81908). In words: Inhibition of equine serum BChE by spectrophotometric-based Ellman's method. In general terms: In Ellman's method for cholinesterases, released thiocholine reacts with DTNB.
Data set [3] deals with Acetylcholinesterase (Electrophorus electricus, UniProt O42275). In words: Inhibition of electric eel AChE by spectrophotometric-based Ellman's method.
The target in data set [4] is Acetylcholinesterase (Torpedo californica, UniProt P04058). Nature of the data set: Pseudo-irreversible inhibition of Torpedo californica AChE using acetylthiocholine as substrate by cornish bowden plot analysis. Also noted: species or system Tetronarce californica.
The nature of data set [5]: Cytotoxicity against human Jurkat cells assessed as cell viability at 50 uM after 48 hrs by XTT assay relative to control. Type of data set: cell-based. Conditions: read-out: Activity.
Data set [6] is described as follows: Cytotoxicity against human Jurkat cells assessed as cell viability at 250 uM after 48 hrs by XTT assay relative to control. It is filed as cell-based. Conditions: read-out: Activity. On the technique in general: Tetrazolium dyes change colour on reduction, which living cells bring about.
Data set [7] can be described thus: Cytotoxicity against human Jurkat cells assessed as cell viability at 10 uM after 48 hrs by XTT assay relative to control. Conditions: read-out: Activity. It is filed as cell-based.
Data set [8] can be described thus: Cytotoxicity against human Jurkat cells assessed as cell viability at 100 uM after 48 hrs by XTT assay relative to control. It is filed as cell-based. Conditions: read-out: Activity.
Data set [9] is described as follows: Cytotoxicity against human Jurkat cells assessed as cell viability at 1 uM after 48 hrs by XTT assay relative to control. Type of data set: cell-based. Conditions: read-out: Activity.
The test system of data set [10] is SK-BR-3. Nature of the data set: Cytotoxicity against human SK-BR-3 cells assessed as decrease in cell proliferation index at 1 to 100 uM after 91 hrs by real-time cell analysis. Type of data set: cell-based. Conditions: sk-br-3, 91 h.
In data set [11] the target is Acetylcholinesterase (Electrophorus electricus) (UniProt O42275). Nature of the data set: Potency index, ratio of rivastigmine IC50 to compound IC50 for electric eel AChE.
Data set [12] concerns SK-BR-3. Nature of the data set: Cytotoxicity against human SK-BR-3 cells assessed as decrease in cell proliferation index at 250 uM by real-time cell analysis. It is filed as cell-based. Conditions: sk-br-3, 250 µM, TDE = time-dependent effect.
The subject of data set [13] is SK-BR-3. Nature of the data set: Cytotoxicity against human SK-BR-3 cells assessed as decrease in cell proliferation index at 250 uM after 91 hrs by real-time cell analysis. The following applies: sk-br-3, 91 h. Type of data set: cell-based.
The target of data set [14] is Acetylcholinesterase (Electrophorus electricus) (UniProt O42275). Nature of the data set: Pseudo-irreversible inhibition of electric eel AChE at 5 to 9 uM by spectrophotometric-based Ellman's method.
The target is the same in data set [15]. In words: Pseudo-irreversible inhibition of electric eel AChE at 4 to 8 uM by spectrophotometric-based Ellman's method.
Data set [16] shares this target. The following applies: 6 to 10 uM.
Description: Pseudo-irreversible inhibition of electric eel AChE at 6 to 10 uM by spectrophotometric-based Ellman's method

These results are taken from ChEMBL document CHEMBL3769313, “Synthesis, structural characterization, docking, lipophilicity and cytotoxicity of 1-[(1R)-1-(6-fluoro-1,3-benzothiazol-2-yl)ethyl]-3-alkyl carbamates, novel acetylcholinesterase and butyrylcholinesterase pseudo-irreversible inhibitors” (Bioorg Med Chem, 2016).

Active and inactive are the calls of the source. The calls are words filed in the database; no cut-off is given here.

Sequence of Acetylcholinesterase (Electrophorus electricus, UniProt O42275) (O42275 whole entry): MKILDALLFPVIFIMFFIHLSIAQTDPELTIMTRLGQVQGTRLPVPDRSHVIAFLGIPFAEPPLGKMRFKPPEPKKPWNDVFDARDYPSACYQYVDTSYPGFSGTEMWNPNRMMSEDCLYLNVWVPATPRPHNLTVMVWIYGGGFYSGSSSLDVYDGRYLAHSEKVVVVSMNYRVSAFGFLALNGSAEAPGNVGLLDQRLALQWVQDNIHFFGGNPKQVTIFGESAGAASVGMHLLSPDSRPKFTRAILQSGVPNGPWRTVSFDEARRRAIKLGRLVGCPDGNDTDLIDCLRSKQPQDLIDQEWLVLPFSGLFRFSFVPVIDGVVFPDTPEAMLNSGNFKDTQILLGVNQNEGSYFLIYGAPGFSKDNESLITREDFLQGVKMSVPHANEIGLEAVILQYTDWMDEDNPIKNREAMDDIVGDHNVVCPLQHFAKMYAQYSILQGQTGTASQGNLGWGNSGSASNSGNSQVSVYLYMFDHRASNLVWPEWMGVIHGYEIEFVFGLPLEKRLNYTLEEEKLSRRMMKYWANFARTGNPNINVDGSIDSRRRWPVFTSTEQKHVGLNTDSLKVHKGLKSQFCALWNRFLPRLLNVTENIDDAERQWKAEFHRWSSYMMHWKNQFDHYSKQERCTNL
Sequence of Acetylcholinesterase (Electrophorus electricus) (O42275 24-633 limits assumed): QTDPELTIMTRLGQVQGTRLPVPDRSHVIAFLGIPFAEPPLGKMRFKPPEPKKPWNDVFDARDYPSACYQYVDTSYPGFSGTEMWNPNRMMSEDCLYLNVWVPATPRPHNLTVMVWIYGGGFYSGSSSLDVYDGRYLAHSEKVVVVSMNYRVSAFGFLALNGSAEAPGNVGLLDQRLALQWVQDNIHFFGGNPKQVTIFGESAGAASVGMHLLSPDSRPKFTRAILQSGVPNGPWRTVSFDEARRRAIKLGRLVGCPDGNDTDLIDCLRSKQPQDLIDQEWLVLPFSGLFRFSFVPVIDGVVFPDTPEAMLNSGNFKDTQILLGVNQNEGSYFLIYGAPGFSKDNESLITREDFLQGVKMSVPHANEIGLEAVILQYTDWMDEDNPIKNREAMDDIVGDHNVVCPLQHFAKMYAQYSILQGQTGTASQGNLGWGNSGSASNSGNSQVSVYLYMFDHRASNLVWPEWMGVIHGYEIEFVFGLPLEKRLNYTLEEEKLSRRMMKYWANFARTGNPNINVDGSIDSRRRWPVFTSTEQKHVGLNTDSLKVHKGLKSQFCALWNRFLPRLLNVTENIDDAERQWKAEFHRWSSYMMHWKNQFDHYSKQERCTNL
Sequence of Cholinesterase (P81908 whole entry): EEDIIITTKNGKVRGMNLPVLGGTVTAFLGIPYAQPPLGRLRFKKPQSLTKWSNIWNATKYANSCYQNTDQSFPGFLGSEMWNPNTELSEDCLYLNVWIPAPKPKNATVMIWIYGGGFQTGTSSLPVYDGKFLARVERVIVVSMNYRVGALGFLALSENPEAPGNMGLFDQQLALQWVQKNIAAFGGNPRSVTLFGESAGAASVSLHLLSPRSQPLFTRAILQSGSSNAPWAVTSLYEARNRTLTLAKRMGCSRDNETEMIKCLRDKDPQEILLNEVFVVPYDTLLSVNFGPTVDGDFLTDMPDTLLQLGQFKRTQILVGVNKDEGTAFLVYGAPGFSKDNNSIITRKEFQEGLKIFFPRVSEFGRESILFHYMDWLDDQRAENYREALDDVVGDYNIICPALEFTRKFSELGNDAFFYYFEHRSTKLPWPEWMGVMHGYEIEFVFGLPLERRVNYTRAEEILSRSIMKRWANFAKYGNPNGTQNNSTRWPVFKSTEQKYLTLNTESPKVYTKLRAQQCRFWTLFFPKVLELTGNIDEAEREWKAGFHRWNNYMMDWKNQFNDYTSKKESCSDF
Sequence of Acetylcholinesterase (Torpedo californica, UniProt P04058) (P04058 whole entry): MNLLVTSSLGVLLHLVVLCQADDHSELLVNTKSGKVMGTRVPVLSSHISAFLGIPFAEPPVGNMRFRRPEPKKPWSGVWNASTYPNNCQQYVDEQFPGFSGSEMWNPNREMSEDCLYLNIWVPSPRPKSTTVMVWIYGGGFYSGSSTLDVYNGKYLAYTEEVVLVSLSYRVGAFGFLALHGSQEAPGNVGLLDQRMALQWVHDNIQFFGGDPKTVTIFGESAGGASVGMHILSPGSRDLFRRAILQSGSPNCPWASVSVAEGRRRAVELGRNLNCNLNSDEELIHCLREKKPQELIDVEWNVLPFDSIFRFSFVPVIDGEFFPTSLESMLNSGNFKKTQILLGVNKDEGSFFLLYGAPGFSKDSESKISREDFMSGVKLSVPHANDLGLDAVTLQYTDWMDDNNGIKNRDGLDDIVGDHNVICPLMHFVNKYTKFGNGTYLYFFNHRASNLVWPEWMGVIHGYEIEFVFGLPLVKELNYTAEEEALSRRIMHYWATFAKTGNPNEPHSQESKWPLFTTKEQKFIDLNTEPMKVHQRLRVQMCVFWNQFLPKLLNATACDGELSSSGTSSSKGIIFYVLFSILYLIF

Usually logP stands for a log measure of how a compound divides between an organic and an aqueous phase. The IC50 is the concentration that gives 50% inhibition. A low value points to greater potency. In turn, `C[C@@H](NC(=O)OCCCl)c1nc2ccc(F)cc2s1` registered a lipophilicity (logP) at 0.25 h in data set [1] of 3.09. In addition, in data set [2], the Ratio IC50 was determined as 0.31. The IC50 on Cholinesterase is 41.2 µM; on Acetylcholinesterase [3], 12.7 µM.
The matching figures for `CC(C)COC(=O)N[C@H](C)c1nc2ccc(F)cc2s1`: 4.24, 0.32, 40.2 µM and 12.9 µM.
As for `CCN(C)C(=O)Oc1cccc([C@H](C)N(C)C)c1` [RIVASTIGMINE], the Ki at Acetylcholinesterase [4] is 0.033 M⁻¹ s⁻¹.
Regarding `C[C@@H](NC(=O)OCCCCl)c1nc2ccc(F)cc2s1`, the logP at 0.25 h in [1] is 1.92. For the same compound, the Ratio IC50 in [2] came to 2.07. The IC50 against Cholinesterase came to 38.8 µM; against Acetylcholinesterase [3], 80.5 µM.
Turning to `CCCCOC(=O)N[C@H](C)c1nc2ccc(F)cc2s1`, in [5], the viability at 48 h, 50 µM worked out at 88.7%. In addition, the viability at 48 h, 250 µM in data set [6] was found to be 49.5%. In addition, in data set [7], the viability at 48 h, 10 µM turned out to be 80.2%. Moreover, the viability at 48 h, 100 µM in data set [8] came to 66.8%. The viability at 48 h, 1 µM in [9] was 90.3%. Further, the results for the Activity result with SK-BR-3 [10] and with SK-BR-3 [12] were “Non-toxic” and “tde”, respectively. Besides, the logP at 0.25 h in data set [1] was found to be 4.82. For the same compound, the Ratio IC50 in data set [2] was 0.23; in data set [11], < 10. Also, the half-inhibitory concentration (IC50) is 40.9 µM against Cholinesterase and 9.26 µM on Acetylcholinesterase [3].
As to `COC(=O)N[C@H](C)c1nc2ccc(F)cc2s1`, the logP at 0.25 h in data set [1] stood at 2.5. Further, in data set [2], the Ratio IC50 turned out to be 0.15. Also, the IC50 amounted to 90.3 µM at Cholinesterase and 13.6 µM against Acetylcholinesterase [3].
Consider `C[C@@H](NC(=O)OCC(F)(F)C(F)F)c1nc2ccc(F)cc2s1`, for which the viability at 48 h, 50 µM in data set [5] came to 89.3%. Also, the viability at 48 h, 250 µM in data set [6] is 80.3%. In data set [7], the viability at 48 h, 10 µM is 85.3%. In addition, the viability at 48 h, 100 µM in data set [8] is 82.9%. Further, the viability at 48 h, 1 µM in data set [9] worked out at 93%. The Activity entry with SK-BR-3 [13] is “Toxic”; with SK-BR-3 [10], “Non-toxic”. The compound further gave a logP at 0.25 h in [1] of 2.92. The Ratio IC50 in data set [2] is 0.27; in [11], < 10. The half-inhibitory concentration (IC50) on Cholinesterase stood at 25 µM; at Acetylcholinesterase [3], 6.75 µM. The inhibition result in data set [14] is “Active”.
In data set [1], `C[C@@H](NC(=O)OCC(Cl)(Cl)Cl)c1nc2ccc(F)cc2s1` yielded a logP at 0.25 h of 2.34. Also, the Ratio IC50 in [2] turned out to be 11.1. The IC50 on Cholinesterase came to 8.31 µM; on Acetylcholinesterase [3], 92.2 µM.
The matching figures for `C[C@@H](NC(=O)OCC(F)(F)C(F)(F)C(F)(F)F)c1nc2ccc(F)cc2s1`: 3.2, 1.1, 74.5 µM and 81.9 µM.
For the compound `C[C@@H](NC(=O)OCCBr)c1nc2ccc(F)cc2s1`, the logP at 0.25 h in [1] was determined as 3.17. Moreover, the Ratio IC50 in data set [2] is 0.3. In addition, the IC50 against Cholinesterase amounted to 38.4 µM; against Acetylcholinesterase [3], 11.4 µM.
Regarding `CCOC(=O)N[C@H](C)c1nc2ccc(F)cc2s1`, the viability at 48 h, 50 µM in data set [5] is 87.9%. The viability at 48 h, 250 µM in [6] was determined as 77%. Moreover, the viability at 48 h, 10 µM in data set [7] is 87.6%. The inhibition entry in data set [15] is “Active”. Besides, the viability at 48 h, 100 µM in data set [8] is 85.6%. Also, the viability at 48 h, 1 µM in [9] was 87.4%. The compound also showed a logP at 0.25 h in [1] of 4.2. Moreover, the Ratio IC50 in data set [2] is 0.3; in [11] it was < 10. For the same compound, the figures for the IC50 at Cholinesterase and at Acetylcholinesterase [3] were 20.1 µM and 6.06 µM, respectively.
In data set [1], `CC(C)OC(=O)N[C@H](C)c1nc2ccc(F)cc2s1` yielded a logP at 0.25 h of 5.33. Besides, the Ratio IC50 in data set [2] was 0.51. The IC50 on Cholinesterase is 32.7 µM; on Acetylcholinesterase [3], 16.5 µM.
As to `C[C@@H](NC(=O)OCC(F)(F)Cl)c1nc2ccc(F)cc2s1`, the viability at 48 h, 50 µM in [5] was found to be 89.6%. For the same compound, in [6], the viability at 48 h, 250 µM is 74%. Further, the viability at 48 h, 10 µM in data set [7] came to 86.6%. Moreover, in data set [8], the viability at 48 h, 100 µM was 85.7%. The viability at 48 h, 1 µM in data set [9] was determined as 91.1%. Besides, the logP at 0.25 h in data set [1] was found to be 2.82. Further, the Ratio IC50 in [2] is 0.32; in data set [11] it was < 10. The IC50 was found to be 25.6 µM at Cholinesterase and 8.14 µM on Acetylcholinesterase [3]. Further, the inhibition result in [16] is “Active”.
As for `COCCOC(=O)N[C@H](C)c1nc2ccc(F)cc2s1`, the logP at 0.25 h in [1] worked out at 3.35. In data set [2], the Ratio IC50 is 0.85. In addition, the IC50 against Cholinesterase came to 66.3 µM; against Acetylcholinesterase [3] it was 56.2 µM.
For `C[C@@H](NC(=O)OC(C)(C)C)c1nc2ccc(F)cc2s1`, in that order: 4.41, 0.46, 23.1 µM and 10.5 µM.
For `C[C@@H](NC(=O)OCC(F)(F)F)c1nc2ccc(F)cc2s1`, in that order: 2.69, 0.64, 63.4 µM and 40.5 µM.
For `CCCOC(=O)N[C@H](C)c1nc2ccc(F)cc2s1`, in that order: 4.56, 0.38, 34.6 µM and 13.1 µM.
